Test results published in patent US20250177372A1, “LIQUID FORMULATIONS OF INDACATEROL AND GLYCOPYRRONIUM” (AeroRx Therapeutics, Inc., priority 2022, published 2025).
Counter-ions that a name gives are not always drawn. Values belong to the compound of their own block, whether it stands above or below them.

Legend:
Format in all cases: physicochemical
[1] = Forced degradation study of indacaterol (RP-HPLC impurities); conditions: for Total Impurities* (%): includes 2% process-related impurity
Procedure: A degraded sample panel was prepared to identify indacaterol degradation pathways and products. Stress conditions are outlined in Table 1.
One of 6N HCl, 6N NaOH, or 30% H2O2 (aqueous) were added to a suitable volume of 100 μg/mL indacaterol and diluted with water:methanol (50:50, v:v) to achieve a final indacaterol concentration of 10 μg/mL. Samples were stored at ambient temperature. At specified time points, acidic and basic hydrolysis (1 N HCl and 1 N NaOH, respectively) samples were neutralized (H2O2 samples were not quenched) and reversed-phase high performance liquid chromatography (RP-HPLC) was used to quantitate indacaterol impurities. All samples were diluted to 5 μg/mL prior to RP-HPLC analysis. Method parameters are outlined in Table 2.
Total impurities (process-related and product-related) of the indacaterol forced degradation study samples are presented in Table 3. Forced degradation impurity peaks were identified based on their retention time relative (RRT) to the indacaterol peak. Impurity peaks already present in the indacaterol (control group at T0; total peak area approximately 2%) were considered process-related, while additional peaks formed after the degradation were considered product-related.

[2] = Aqueous solubility of indacaterol with varying pH in citrate buffer (orbital shaker, UV-Vis); conditions: aqueous citrate buffer 5 mM
Procedure: Solubility studies of indacaterol in solutions of varying pH were performed using an orbital shaker method. Excess indacaterol was placed in a glass vial with an aqueous citrate buffer (5 mM; prepared from citric acid and NaOH). Samples were shaken for 12 to 24 hours to ensure equilibrium was reached before checking and adjusting the pH (using 1 M HCl and NaOH) and placing samples back into the orbital shaker for an additional 12 hours. This process was repeated up to two times or until the desired pH was obtained. After the desired pH was reached, the vial was removed from the shaker and allowed to settle for 30 minutes. Then, the sample was filtered using a 0.2 μM PVDF syringe filter; the initial 0.5 mL of filtrate was discarded. The pH was then measured and the concentration of the indacaterol was evaluated by UV-Vis.

[3] = Aqueous solubility of indacaterol and indacaterol maleate in water (orbital shaker, UV-Vis); conditions: for pH after dissolution / Solubility: water, initial pH 7.1; for Solubility: shaken 12 hours, UV-Vis
Procedure: Solubility studies of indacaterol and indacaterol maleate were performed using an orbital shaker method. Excess indacaterol was placed in a glass vial with water. The initial pH of the water was 7.1. Samples were shaken for 12 hours to ensure equilibrium was reached. After the 12 hour period, the vial was removed from the shaker and allowed to settle for 30 minutes. Then, the sample was filtered using a 0.2 μM polyvinylidene fluoride (PVDF) syringe filter; the initial 0.5 mL of filtrate was discarded. The pH was then measured and the concentration of the indacaterol was evaluated by UV-Vis.

[4] = Acidic Hydrolysis (1M HCl), 15 h, ambient temperature
[5] = Basic Hydrolysis (1M NaOH), 15 h, ambient temperature

- Total Peak Area (%) ([1]; Acidic Hydrolysis (1M HCl), 15 h): 99.79%
- Indacaterol (%) [1, 4]: 92.54%
- Total Impurities* (%) [1, 4]: 7.25%
- Indacaterol (%), Change in % peak ([1]; Acidic Hydrolysis (1M HCl), 15 h vs T0): −3.27%
- Indacaterol (%) ([1]; Acidic Hydrolysis (1M HCl), T0): 95.81%
- Total Peak Area (%) ([1]; Acidic Hydrolysis (1M HCl), T0): 99.82%
- Total Impurities* (%) ([1]; Acidic Hydrolysis (1M HCl), T0): 4.01%
- Total Peak Area (%) ([1]; Basic Hydrolysis (1M NaOH), 15 h): 99.75%
- Indacaterol (%) [1, 5]: 92.06%
- Total Impurities* (%) [1, 5]: 7.69%
- Indacaterol (%), Change in % peak ([1]; Basic Hydrolysis (1M NaOH), 15 h vs T0): −3.76%
- Indacaterol (%) ([1]; Basic Hydrolysis (1M NaOH), T0): 95.82%
- Total Peak Area (%) ([1]; Basic Hydrolysis (1M NaOH), T0): 99.81%
- Total Impurities* (%) ([1]; Basic Hydrolysis (1M NaOH), T0): 3.99%
- Total Peak Area (%) ([1]; Control, T0): 99.85%
- Indacaterol (%) ([1]; Control, T0, 10 μg/mL in MeOH:H2O (50:50), ambient temperature): 98.04%
- Total Impurities* (%) ([1]; Control, T0): 1.81%
- Indacaterol (%) ([1]; Oxidation (1.2% H2O2), 7 h): 97.03%
- Total Peak Area (%) ([1]; Oxidation (1.2% H2O2), 7 h): 99.89%
- Total Impurities* (%) ([1]; Oxidation (1.2% H2O2), 7 h): 2.77%
- Indacaterol (%) ([1]; Oxidation (1.2% H2O2), 29 h): 90.76%
- Total Peak Area (%) ([1]; Oxidation (1.2% H2O2), 29 h): 99.59%
- Total Impurities* (%) ([1]; Oxidation (1.2% H2O2), 29 h): 8.83%
- Total Impurities* (%) ([1]; Oxidation (1.2% H2O2), 29 h, listed as indacaterol): approximately 9%
- Indacaterol (%), Change in % peak ([1]; Oxidation (1.2% H2O2), 29 h vs 7 h): −6.27%
- degradation of indacaterol samples in aqueous solutions over time (FIG. 1) ([1]; forced degradation experiment, staggered chromatogram): minimal degradation
- dependence of indacaterol solubility on pH [2]: increase with decreasing pH
- solubility in water ([3]; water at pH 7.1): insoluble
- pH after dissolution [3]: 6.20
- Solubility [3]: < 1 µg/mL
SMILES: CCc1cc2c(cc1CC)CC(NC[C@H](O)c1ccc(O)c3[nH]c(=O)ccc13)C2 [Indacaterol, (R)-5-[2-(5,6-Diethylindan-2-ylamino)-1-hydroxyethyl]-8hydroxy-1H-quinolin-2-one]

- pH after dissolution [3]: 3.30
- Solubility [3]: 230 µg/mL
SMILES: CCc1cc2c(cc1CC)CC(NC[C@H](O)c1ccc(O)c3[nH]c(=O)ccc13)C2 [Indacaterol maleate, indacaterol maleate]
